# Experimental data from US10723998B2, “Application of ethyl p-methoxycinnamate and derivatives thereof in maintaining self-renewal and pluripotency of stem cells” (NORTHEAST NORMAL UNIVERSITY, priority 2015, dated 2020).
# Test system: Oct4 promoter
# Assay: Luciferase reporter gene assay of derivatives on Oct4 expression (co-transfection with pCMV-β-gal) in P19 cells
# Format: cell-based, mouse
# Details: 5 μg/mL, 12-24 h, DMSO control, FIG. 6
# Method: The effect of derivatives of ethyl p-methoxycinnamate on Oct4 expression was assayed by a luciferase reporter gene method, the derivatives including diethyl 4-methoxybenzalmalonate, ethyl 3-(3-methoxy-4-methoxycarbonylmethoxyphenyl)acrylate, diethyl 4-acetoxybenzylidenemalonate, chlorogenic acid, ethyl cinnamate, 3-cinnamoyloxypropyl 3-propylacrylate, ethyl 2-cyano-3,3-diphenylacrylate, ethyl 2,6-dichlorocinnamate, diethyl 4-chlorobenzylidenemalonate, ethyl 4-aminocinnate, ethyl 3-cyanocinnamate, ethyl 4-nitrocinnamate, 3-[3-(4-methoxyphenyl)acryloyloxymethyl]benzyl 3-(4-methoxyphenyl)acrylate, 4-[3-(4-methoxyphenyl)acryloyloxy]butyl-2-ynyl 3-(4-methoxyphenyl)acrylate, ethyl indole-2-carboxylate, and ethyl 6-methoxy-1-benzofuran-2-carboxylate.
# One day before transfection, mouse teratoma cells P19 were inoculated into a 24-well cell culture plate at a density of 1×10^5 cells/well, to make the cells grown to about 80% before transfection. A liposomal transfection reagent Entranster™-D from Engreen company was used to perform the transfection according to the instructions, to co-transfect the P19 cells with target plasmid (PGL3-Oct4P-Basic or pGL3-Basic) and reference plasmid (pCMV-β-gal). The total amount of the plasmid used for transfection was 1 μg/well (the target plasmid:the reference plasmid=2:1). The plasmid was added to 25 μL of serum-free DMEM culture medium, and fully mixed. 3 μL of the transfection reagent was then added to another 25 μL of serum-free DMEM culture medium, mixed well, and allowed to stand for 5 min. The DMEM culture medium containing the transfection reagent was then added to the DMEM culture medium containing the plasmid, and the mixture was immediately pipetted more than 10 times, and allowed to stand at room temperature for 30 min. 250 μL of DMEM culture medium containing 10% fetal calf serum was added to the mixed solution, and gently mixed well. The original cell culture medium in the 24-well plate was discarded, and replaced with the above mixed solution. After being cultured for 4-6 h in a 5% CO2 cell incubator at 37° C., the original culture medium was absorbed and removed, and replaced with 500 μL of DMEM culture medium containing 10% fetal calf serum. […] After subsequent continuous culture for 12-24 h, the cells were lysed, and the luciferase activity was assayed.
# Luciferase Reporter Assay System and FluoStar Optima were used to assay the luciferase activity of the transfected cell lysis solution. To 45 μL of the cell lysis solution was added 5 μL of Assay Cocktail reagent, after they were mixed well, 100 μL of Luciferin reaction solution was added, and fluorescence counting in 2 s was measured using FluoStar Optima instrument, which reflected the activity level of the studied plasmid reporter genes expressing firefly luciferase. To another 20 μL of the cell lysis solution was added 37.5 μL of β-gal Buffer followed by 12.5 μL of ONPG (6 mg/mL), and after they were mixed well, they were allowed to stand at 37° C. for 30 min. An absorption value at 450 nm was assayed using a microplate reader, which reflected the activity level of internal reference plasmid pCMV-β-gal expressing β-galactosidase. The ratio between the activity of the firefly luciferase and the activity of the β-galactosidase (β-gal) excluded the difference of the sample transfection efficiency, and could relatively objectively reflect the difference of promoter activity between samples. The relative luciferase activity of different samples was calculated through the following equation: […]
row,Structure (SMILES),effect of derivatives on the activity of the Oct4 promoter (relative luciferase activity)
1,"CCOC(=O)C(C#N)=C(c1ccccc1)c1ccccc1 [ethyl 2-cyano-3,3-diphenylacrylate]",have the effect of enhancing the activity of the Oct4 promoter
2,COc1ccc(C=CC(=O)OCC#CCOC(=O)C=Cc2ccc(OC)cc2)cc1 [4-[3-(4-methoxyphenyl)acryloyloxy]butyl-2-ynyl 3-(4-methoxyphenyl)acrylate],have the effect of enhancing the activity of the Oct4 promoter
3,O=C(/C=C/c1ccc(O)c(O)c1)O[C@@H]1C[C@](O)(C(=O)O)C[C@@H](O)[C@H]1O [chlorogenic acid],have the effect of enhancing the activity of the Oct4 promoter
4,CCOC(=O)C(=Cc1ccc(OC(C)=O)cc1)C(=O)OCC [diethyl 4-acetoxybenzylidenemalonate],have the effect of enhancing the activity of the Oct4 promoter
5,CCOC(=O)C=Cc1ccccc1 [ethyl cinnamate],have the effect of enhancing the activity of the Oct4 promoter
6,COc1ccc(C=CC(=O)OCc2cccc(COC(=O)C=Cc3ccc(OC)cc3)c2)cc1 [3-[3-(4-methoxyphenyl)acryloyloxymethyl]benzyl 3-(4-methoxyphenyl)acrylate],have the effect of enhancing the activity of the Oct4 promoter
7,CCCC=CC(=O)OCCCOC(=O)C=Cc1ccccc1 [3-cinnamoyloxypropyl 3-propylacrylate],have the effect of enhancing the activity of the Oct4 promoter
8,CCOC(=O)c1cc2ccccc2[nH]1 [ethyl indole-2-carboxylate],have the effect of enhancing the activity of the Oct4 promoter
